Measured values from article PMC12508057, “Discovery of ETI41 and ETI60: novel selective endosomal Toll-like receptor inhibitors for the treatment of autoimmune diseases” (Experimental & Molecular Medicine, 2025).

What was measured:
[1] = system: TLR7- and TLR9-dependent downstream signaling; test: Western blot of TLR7- and TLR9-dependent downstream signaling in RAW 264.7; type: cell-based, mouse; settings: RAW 264.7, 5 or 10 μM
Description: RAW 264.7 cells were seeded into 60-mm dishes at 1 × 10^6 cells per dish. After 30 min of treatment with ETI41 or ETI60, the cells were stimulated with 2 μM IMQ (a TLR7 agonist) or 1 μM ODN2395 (a TLR9 agonist). Lysates were prepared using a Mammalian Protein Extraction Kit (Thermo Fisher Scientific) with protease and phosphatase inhibitors. Nuclear proteins were extracted using an NE-PER Nuclear and Cytoplasmic Extraction Kit (Thermo Fisher Scientific). Proteins were quantified using a bicinchoninic acid kit (Sigma-Aldrich), separated by SDS–PAGE and transferred onto nitrocellulose membranes (GE Healthcare). Membranes were incubated with specific primary antibodies and horseradish peroxidase-conjugated secondary antibodies. […] Protein bands were detected using a chemiluminescent substrate (SuperSignal West Pico PLUS; Thermo Fisher Scientific) and visualized using a Fuji LAS-3000 system (Fujifilm).
Fig. 2 ETI41 and ETI60 inhibit TLR7- and TLR9-dependent downstream signaling. a, b Western blot analysis was used to quantify the protein levels of phosphorylated p-ERK, p-JNK, p38, Iκ-Bα and p65. […] Statistical differences between the induced and other cases were analyzed and verified using a one-tailed Student’s t-test (*P < 0.05, **P < 0.01, ***P < 0.001). e–g The TLR7 agonist IMQ (1 μM) was used in 3’ RNA-seq analysis to induce signaling associated with immune responses in RAW 264.7 cells. […]

[2] = system: TLR9; test: FACS analysis of FAM-labeled CpG-ODN uptake and retention; type: cell-based; settings: for Endocytosis of CpG ODNs: 30-min treatment with labeled CpG ODNs
Description: RAW 264.7 cells were seeded into 60-mm dishes at 2 × 10^6 cells per dish. After 30 min of treatment with ETI41 or ETI60, cells were incubated with 1 μM of 3’-FAM-labeled ODN 2395 (Bioneer Inc.) for 30 min. Fluorescence intensity was measured using a NovoCyte Flow Cytometer (Agilent Technologies) and analyzed using NovoExpress software.
Fig. 3 Binding mechanism of ETI41 and ETI60 with TLR7 and TLR9. a ETI41 and ETI60 bind to the extracellular domain of TLR7. b Detailed intermolecular interactions ofETI41 and ETI60 are shown with the key residues of TLR7. c ETI41 and ETI60 bind to the extracellular domain of TLR9. d Intermolecular interactions of ETI41 and ETI60 with the key residues of TLR9. The asterisk indicates chain A of TLR7 and TLR9. ETI41 and ETI60 are depicted in ball-and-stick models. Bonds are represented by lines, with distances measured in ångström (Å) units. […] Data presented are from three independent experiments (n = 3), and statistical differences between the induced case and other cases were analyzed and verified using a one-tailed Student’s t-test (*P < 0.05, **P < 0.01, ***P < 0.001). TEXT PRINTED IN THE PICTURE: (f) ETI41: ODN-Fm (30min): Q3-1 0.00%; ODN-Fm (30min): Q3-2 0.00%; ODN-Fm (30min): Q3-3 10.75%; ODN-Fm (30min): Q3-4 89.25%; ODN-Fm (30min) → Washing → Incubation (1h): Q3-1 0.00%; ODN-Fm (30min) → Washing → Incubation (1h): Q3-2 0.00%; ODN-Fm (30min) → Washing → Incubation (1h): Q3-3 40.96%; ODN-Fm (30min) → Washing → Incubation (1h): Q3-4 59.04% | (f) ETI60: ODN-Fm (30min): Q3-1 0.00%; ODN-Fm (30min): Q3-2 0.00%; ODN-Fm (30min): Q3-3 12.80%; ODN-Fm (30min): Q3-4 87.20%; ODN-Fm (30min) → Washing → Incubation (1h): Q3-1 0.00%; ODN-Fm (30min) → Washing → Incubation (1h): Q3-2 0.00%; ODN-Fm (30min) → Washing → Incubation (1h): Q3-3 56.37%; ODN-Fm (30min) → Washing → Incubation (1h): Q3-4 43.63% DOUBTS OF THE COPYIST ABOUT THIS PICTURE: Panel f, very small print: the digits 3, 5, 6, 8 and 9 cannot be told apart with certainty in any quadrant percentage. / ETI41, ODN-Fm (30min): Q3-3 10.75% and Q3-4 89.25% are best readings / ETI60, ODN-Fm (30min): Q3-3 12.80% and Q3-4 87.20% are best readings / ETI41, Washing/Incubation (1h): Q3-3 40.96% and Q3-4 59.04% are best readings / ETI60, Washing/Incubation (1h): Q3-3 56.37% and Q3-4 43.63% are best readings / Panel f: the control plots ('Con' and '-') also print quadrant percentages. They are left out because they are not substance results.
FACS analysis further validated the binding of ETI41 and ETI60. Unmethylated CpG ODNs, acting as ligands for TLR9, were fluorescently labeled, and their cellular penetration was monitored.

| SMILES | IMQ- or ODN2395-induced phosphorylation of MAPKs (p-ERK, p-JNK, p-p38), nuclear translocation of NF-κB p65, Iκ-Bα degradation and IRF7 expression [1] | Endocytosis of CpG ODNs [2] | Fluorescence intensity of labeled CpG ODN after washing [2] |
| --- | --- | --- | --- |
| Cc1cc2c(N)c3c(nc2n1CCCN(C)C)CCCCCC3 [ETI41] | inhibited | did not interfere with endocytosis | reduction in fluorescence intensity |
| COc1ccc2c3c(N)c4c(nc3n(CCCN(C)C)c2c1)CCCC4 [ETI60] | inhibited | did not interfere with endocytosis | reduction in fluorescence intensity |
